Assay results reported in patent publication US10729633B2, “Methods for boosting UVA photo-protection using antioxidants” (L'OREAL, priority 2018, dated 2020).

How the values were obtained:
[1] = In vivo PPD: UVPPD PF according to ISO 24442; conditions: conclusion in words from PPD data of Examples 2 and 3
Protocol: To characterize protection from UVA radiation, the PPD (Persistent Pigment Darkening) method, which measures the color of the skin observed 2 to 4 hours after exposure of the skin to UVA radiation, is used. This method was adopted in 1996 by the Japanese Cosmetic Industry Association (JCIA) as the official test procedure for the UVA labelling of products and is commonly used in industry, especially in Europe and the United States. See JAPAN COSMETIC […] ASSOCIATION TECHNICAL BULLETIN, Measurement Standards for UVA Protection Efficacy. Issued Nov. 21, 1995 and effective of Jan. 1, 1996), which is incorporated herein by reference in its entirety. […]
The degree of UVA protection provided by each of the formulations was determined in terms of UVPPD PF. […]
The UVPPD PF for each of sunscreen formulations A, B, and C was determined according to ISO 24442, which was adopted by the Japan Cosmetic Industry Association in 2012 for characterization of UVA protection and is incorporated herein by reference in its entirety. […] UVA radiation can be monitored continuously during exposure using a Model DCS-1 Sunburn UV Meter/Dose Controller System (Solar Light Co.), formerly known as the Robertson-Berger Sunburn meter (R-B meter). […] The MPPD of unprotected skin is determined under standardized lighting conditions 2 to 4 hours after exposures. […]

[2] = Superoxide Radical Absorbance Capacity (SORAC) assay; assay type: biochemical; design: key: None: No detectable value; conditions: in tubo, WST-1 probe
Protocol: (§1) In tubo antioxidant testing was carried out to determine the antioxidant profile of antioxidants that boost UVA photo-protection.
The Superoxide Radical Absorbance Capacity (SORAC) assay is an in tubo method to determine the relative capacity of an antioxidant to dismutate the superoxide anion. The Varioskan Flash is employed to measure the superoxide dismutase-catalyzed dismutation of the superoxide anion in the presence of the absorbance probe, water-soluble tetrazolium salt (WST-1). WST-Formazan is produced when WST-1 is […] by superoxide anion that is generated by the mixture of xanthine and xanthine oxidase. One unit of SOD activity is defined as the quantity of antioxidant to obtain 50% inhibition of the rate of reduction of WST-1. The final SORAC value is expressed as one unit of SOD activity per milligram of dry weight of antioxidant material at 50% inhibition (Unit/mg).

[3] = Hydroxyl Radical Absorbance Capacity (HORAC) assay; assay type: biochemical; conditions: in tubo, Gallic Acid standard
Protocol: as §1
The HORAC assay is another common method to examine antioxidant activity. It is specific for hydroxyl radicals. The Varioskan Flash is employed for the quantification of the capacity of an antioxidant to avert the hydroxyl radical. The hydroxyl radical, generated from hydrogen peroxide and Cobalt (II) fluoride, will quench a fluorescent probe by a hydrogen atom transfer reaction. In the presence of an antioxidant, however, the molecule will chelate the Co(II), preventing the generation of the hydroxyl radical and initially block or prevent the quenching of the probe, causing a delay in the fluorescence decay profile. The area under the fluorescence decay curves for samples with and without the presence of an antioxidant molecule are compared to that of a standard reference material and the hydroxyl radical averting capacity is determined. By quantifying the decay of fluorescence using a fluorometer, the degree of protection is determined by comparison with a standard control antioxidant Gallic Acid (standard reference material). The result is expressed in μmol equivalent of Gallic Acid per gram of sample (i.e., μmol GAE/g). Equipment that can automatically measure and calculate the capacity is commercially available, such as the VarioSkan flash microplate reader from Thermo Scientific. To test samples by using HORAC, compounds are dissolved into water-based NaH2PO4 buffer.

[4] = Oxygen Radical Absorbance Capacity (ORAC) assay; assay type: biochemical; conditions: in tubo, Trolox standard
Protocol: as §1
The Oxygen Radical Absorbance Capacity (ORAC) assay is one of most commonly used methods to evaluate the capacity of antioxidants against ROS (reactive oxygen species), specific for peroxyl which is one of the most important free radicals present in the human skin environment. The ORAC assay measures the oxidative degradation of the fluorescent probe (fluorescein) after being mixed with free radical generators such as azo-initiator compounds (2,2′-Azobis(2-amidinopropane) dihydrochloride, AAPH). Azo-initiators produce the peroxyl radical by heating, which damages the fluorescent molecule, resulting in the loss of fluorescence. Antioxidants protect the fluorescent molecule from the oxidative degeneration. By quantifying the decay of fluorescence using a fluorometer, the degree of protection is determined comparing with a standard control antioxidant Trolox. The result is expressed in mol equivalent of Trolox per gram of sample (i.e., μmol TE/g). Equipment that can automatically measure and calculate the capacity is commercially available, such as the VarioSkan flash microplate reader from Thermo Scientific. To test samples for ORAC, compounds are dissolved into water-based NaH2PO4 buffer.

Row | Compound | boosting effect on UVA photo-protection [1] | SORAC-superoxide [2] | HORAC-hydroxyl [3] | ORAC-peroxyl [4]
1 | O=C(O)[C@H]1O[C@@H](Oc2cc3oc(-c4ccccc4)cc(=O)c3c(O)c2O)[C@H](O)[C@@H](O)[C@@H]1O [Baicalin, reference compound] | did not boost UVA photo-protection | Medium (200-1000) | Weak (<2600) | Medium (4500-10000)
2 | COc1cc(/C=C/C(=O)O)ccc1O [Ferulic acid] | – | Weak (<200) | Strong (>10000) | Strong (>10000)
3 | O=C(CCc1ccc(O)cc1)c1c(O)cc(O)cc1O [Phloretin] | – | None | Medium (2600-10000) | Strong (>10000)
4 | OC[C@H]1O[C@@H](Oc2cc(O)cc(/C=C/c3ccc(O)cc3)c2)[C@H](O)[C@@H](O)[C@@H]1O [Polydatin] | – | None | Strong (>10000) | Strong (>10000)
